{"source": "paper PMC12454639", "about": "“Direct disassembly of α-syn preformed fibrils into α-syn monomers by an all-D-peptide” (NPJ Parkinson's Disease, 2025)", "key": {"small α-syn PFF seeds": {"test_system": "small α-syn PFF seeds", "experiment": "Protein quantification after centrifugation (precipitation of small α-syn PFF)", "type": "physicochemical", "details": "as DLS samples (200 nM PFF + 500 nM SVD-1a), 0, 20, 72 h at 37 °C, centrifuged 21,000×g 30 min, Micro-BCA, n = 3", "protocol": "Measurements were performed using a SpectroSize 300 131 (XtalConcepts, GE) instrument and a sample volume of 1 ml in a sealed quartz cuvette (Hellma Group, GE). Samples were incubated in PBS pH 7.4 at 37 °C under quiescent conditions. Prior to measurements, all samples were centrifuged at 21,000×g for 30 min at 4 °C to remove potential impurities from the solution. For time-dependent DLS measurements, data points were recorded every 60 s. Diffusion coefficients were obtained from analysis of the decay of the scattered intensity autocorrelation function and were used to determine apparent hydrodynamic radii via the Stokes-Einstein equation. Kinetic fitting for the degradation of small α-syn PFF seeds was performed with the “SVD-1a + small α-syn PFF” sample using the “single-phase exponential decay function” of GraphPad Prism 10 (GraphPad Software Inc., USA), considering only particle sizes in the range of 1–100 nm with an amplitude > 0.2. […] Protein quantification after centrifugation was performed by incubating identical samples as in the DLS measurements with additional compound and buffer controls in low-binding reaction tubes at 37 °C under quiescent conditions (n = 3). […] Protein quantification of pellet and supernatant was performed using a Micro-BCA kit following the manufacturer’s instructions (Thermo Fisher Scientific, USA). […]"}, "α-syn monomer": {"test_system": "α-syn monomer", "experiment": "AFM of de novo aggregation endpoint samples", "type": "biochemical", "details": "10 µM α-syn + 20 µM SVD-1a", "protocol": "Fig. 7 De novo aggregation analysis of α-syn in the presence and absence of SVD-1a. A De novo ThT assay of 10 µM α-syn with and without 20 µM SVD-1a. ThT fluorescence progression was measured in a 96-well non-binding half-area plate (Corning, USA) with a FLUOStar plate reader (BMG labtech, GE) at λex = 448 nm and λem = 482 nm with 300 rpm continuous orbital shaking between reads. For induction of aggregation, one borosilicate bead per well was added (d = 3 mm, Hilgenberg, GE). Data are shown as mean values with ±SD (n = 5). B CD secondary structure analysis of de novo aggregation samples. Samples were incubated as described in (A) without added ThT (n = 3) and subsequently pooled for CD analysis. Far-UV ellipticity of the samples was measured in a quartz cuvette (l = 10 mm) in a J-1100 CD-spectrometer (Jasco, GE). In addition to (A), a sample with 20 µM SVD-1a alone was incubated under identical conditions and later used as a reference for the sample with α-syn and SVD-1a. For this sample (α-syn + SVD-1a (after incubation)), the SVD-1a reference subtracted CD spectrum is shown. […] D α-Syn in the flow through (MWCO < 100 kDa) was quantified using an α-syn specific ELISA (BioLegend, Human α-Synuclein (Colorimetric), 448607, n = 3). E Retentate and flow-through samples were analyzed using SDS–PAGE with silver staining. […]"}}, "note": "Square brackets hold non-standard residues; d marks the D form. Peptide text beside a SMILES is read from it.", "data": [{"compound": "CC[C@@H](C)[C@@H](NC(=O)[C@@H](Cc1c[nH]cn1)NC(=O)[C@@H](CCC(=O)O)NC(=O)[C@@H](CCC(N)=O)NC(=O)[C@@H](Cc1c[nH]c2ccccc12)NC(=O)[C@@H](Cc1ccc(O)cc1)NC(=O)[C@H](NC(=O)[C@@H](CCC(=O)O)NC(=O)[C@@H](Cc1c[nH]cn1)NC(=O)[C@H](NC(=O)[C@H]1CCCN1C(=O)[C@@H](CC(C)C)NC(=O)[C@H](N)CCCNC(=N)N)[C@H](C)O)[C@H](C)O)C(=O)N[C@H](Cc1c[nH]c2ccccc12)C(=O)N[C@H](Cc1c[nH]cn1)C(=O)N[C@H](C)C(=O)N[C@H](CCCNC(=N)N)C(=O)N[C@H](CCCNC(=N)N)C(=O)N[C@H](CCCNC(=N)N)C(=O)N[C@H](CCCNC(=N)N)C(=O)N[C@H](CCCNC(=N)N)C(N)=O", "note": "[SVD-1a] (H-[dR][dL][dP][dT][dH][dE][dT][dY][dW][dQ][dE][dH][dI][dW][dH][dA][dR][dR][dR][dR][dR]-NH2)", "values": [{"measurement": "precipitation of small α-syn PFF seeds", "setting": "small α-syn PFF seeds", "result": "did not lead to precipitation of these species"}, {"measurement": "fibrils in endpoint samples (AFM)", "setting": "α-syn monomer", "result": "clearly do not contain any fibrils"}]}]}
